Type in all cases: cell-based
Test [1] has as its system Candida albicans (C693). Briefly: Microbroth susceptibility testing, yeast (MIC). The note with it: strain C693. As for the experimental part: (§1) Microbroth Susceptibility Testing Methods
(§2) Yeast susceptibility testing procedure followed the NCCLS document M27-A2 (Reference Method for Broth Dilution Antifungal Susceptibility Testing of Yeasts; Approved Standard-Second Edition (ISBN 1-56238-469-4). NCCLS, 940 West Valley Road, Suite 1400 Wayne, Pa. 19087-1898 USA, 2002) with the following modifications:
(§3) 1. The final test volume was 100 μl and not 200 μl as stipulated. 2. For testing Saccharomyces cerevisiae strain PM503 YPD was used in place of RPMI 1640 broth.
A general note: Broth dilution looks for growth in wells or tubes with falling amounts of substance.

Test [2] concerns Candida albicans (C697). Kind of test: Microbroth susceptibility testing, yeast (MIC). The note with it: strain C697. As for the experimental part:
as §1, §2, §3

The test system of test [3] is Candida glabrata (C624). Briefly: Microbroth susceptibility testing, yeast (MIC). The note with it: Nakaseomyces glabratus; strain C624. As to the method:
as §1, §2, §3

Test [4] relates to Saccharomyces cerevisiae (C51). Kind of test: Microbroth susceptibility testing, yeast (MIC). The note with it: read-out: MIC Saccharomyces cerevisiae (C51). As for the experimental part:
as §1, §2, §3

Test [5] relates to Aspergillus fumigatus (ND158). Kind of test: Microbroth susceptibility testing, filamentous fungi (MEC). The note with it: strain ND158, minimum effective concentration. As to the method: Microbroth Susceptibility Testing Methods Filamentous fungi susceptibility testing procedure follows the NCCLS document M38-A (Reference Method for Broth Dilution Antifungal Susceptibility Testing of Filamentous Fungi; Approved Standard (ISBN 1-56238-470-8). NCCLS, 940 West Valley Road, Suite 1400 Wayne, Pa. 19087-1898 USA, 2002) with the following modifications: 1. The final test volume was 100 μl and not 200 μl as stipulated. 2. The end point used to assess the in vitro activity of glucan synthase inhibitors may require microscopic evaluation of cell morphology in the test wells (Kurtz et al., Antimicrobial Agents and Chemotherapy, 38, 1480-1489, 1994; […] et al., Antimicrobial Agents and Chemotherapy, 45, 327-330, 2001).

Usually MIC stands for the least concentration at which growth counts as inhibited. By minimal effective concentration is commonly meant the smallest amount tested that counted as effective.

Values after ≈ are worked out from the molar mass of the structure shown.

For the molecule `CC(C)OCCCNc1c(N2CCN(S(=O)(=O)Cc3ccccc3)CC2)cnn(-c2ccccc2)c1=O` [compound 254], the MIC lay within 5 to 50 µg/mL (≈ 9.51 to 95.1 µM) in test [1], 5 to 50 µg/mL (≈ 9.51 to 95.1 µM) in test [2], 1 to 5 µg/mL (≈ 1.9 to 9.51 µM) in test [3] and 1 to 5 µg/mL (≈ 1.9 to 9.51 µM) in test [4]. In test [5], this molecule came in with a minimal effective concentration of 5 to 50 µg/mL.
As to `CCOC(=O)C1CCCN(c2c(N3CCN(S(=O)(=O)c4c(F)cccc4F)CC3)cnn(-c3ccccc3)c2=O)C1` (stereo not shown) [compound 236], the MIC in test [1] was in the range of 1 to 5 µg/mL (≈ 1.7 to 8.51 µM); in test [2], 1 to 5 µg/mL (≈ 1.7 to 8.51 µM); in test [3] it was 0.5 to 1 µg/mL (≈ 0.851 to 1.7 µM); in test [4], 1 to 5 µg/mL (≈ 1.7 to 8.51 µM). Further, the minimal effective concentration in test [5] lay within 1 to 5 µg/mL.
Regarding `Cc1nc[nH]c1CN1CCN(c2cnn(-c3ccccc3)c(=O)c2SCc2ccccc2)CC1` [compound 17], the MIC in test [1], in test [2], in test [3] and in test [4] was 5 to 50 µg/mL (≈ 10.6 to 106 µM) each time. In addition, the minimal effective concentration in test [5] was 5 to 50 µg/mL.
For the molecule `COc1ccc(CCOc2c(N3CCN(Cc4ccccc4O)CC3)cnn(-c3ccccc3)c2=O)cc1` [compound 316], the MIC is 5 to 50 µg/mL (≈ 9.75 to 97.5 µM) in test [1], 5 to 50 µg/mL (≈ 9.75 to 97.5 µM) in test [2], 5 to 50 µg/mL (≈ 9.75 to 97.5 µM) in test [3] and 0.5 to 1 µg/mL (≈ 0.975 to 1.95 µM) in test [4]. For the same molecule, the minimal effective concentration in test [5] is 1 to 5 µg/mL.
Take `CCOC(=O)C1CCCN(c2c(N3CCN(C(=O)c4ccc5[nH]cnc5c4)CC3)cnn(-c3ccccc3)c2=O)C1` (stereo not shown) [compound 136]: the MIC in test [1], in test [2], in test [3] and in test [4] was 5 to 50 µg/mL (≈ 9 to 90 µM) in each case. For the same molecule, the minimal effective concentration in test [5] was in the range of 5 to 50 µg/mL.
With `COc1ccc(Sc2c(N3CCN(S(=O)(=O)c4cccs4)CC3)cnn(-c3ccccc3)c2=O)cc1` [compound 66], the MIC fell in the range of 5 to 50 µg/mL (≈ 9.25 to 92.5 µM) in test [1], 5 to 50 µg/mL (≈ 9.25 to 92.5 µM) in test [2], 0.5 to 1 µg/mL (≈ 0.925 to 1.85 µM) in test [3] and 1 to 5 µg/mL (≈ 1.85 to 9.25 µM) in test [4]. For the same molecule, the minimal effective concentration in test [5] lay within 1 to 5 µg/mL.
Take `CCOC(=O)C1CCCN(c2c(N3CCN(C(=O)c4c[nH]c5ccccc45)CC3)cnn(-c3ccccc3)c2=O)C1` (stereo not shown) [compound 114]: the MIC in test [1], in test [2], in test [3] and in test [4] was 5 to 50 µg/mL (≈ 9.01 to 90.1 µM) each time. The same molecule returned a minimal effective concentration in test [5] of 5 to 50 µg/mL.
Turning to `O=c1c(SCc2ccccc2)c(N2CCN(S(=O)(=O)c3ccccc3[N+](=O)[O-])CC2)cnn1-c1ccccc1` [compound 67], the minimal inhibitory concentration (MIC) was 5 to 50 µg/mL (≈ 8.87 to 88.7 µM) in test [1], 5 to 50 µg/mL (≈ 8.87 to 88.7 µM) in test [2], 1 to 5 µg/mL (≈ 1.77 to 8.87 µM) in test [3] and 5 to 50 µg/mL (≈ 8.87 to 88.7 µM) in test [4]. In addition, the minimal effective concentration in test [5] lay within 5 to 50 µg/mL.
With `O=c1c(N2CCOCC2)c(N2CCN(S(=O)(=O)Cc3ccccc3)CC2)cnn1-c1ccccc1` [compound 253], the minimum inhibitory concentration (MIC) in test [1] lay within 5 to 50 µg/mL (≈ 10.1 to 101 µM); in test [2], 1 to 5 µg/mL (≈ 2.02 to 10.1 µM); in test [3] it was 1 to 5 µg/mL (≈ 2.02 to 10.1 µM); in test [4], 1 to 5 µg/mL (≈ 2.02 to 10.1 µM). Moreover, the minimal effective concentration in test [5] lay within 5 to 50 µg/mL.
`Cc1cccc(CN2CCN(c3cnn(-c4ccccc4)c(=O)c3SC(C)C)CC2)c1` [compound 9]: the MIC is 5 to 50 µg/mL (≈ 11.5 to 115 µM) in test [1], 5 to 50 µg/mL (≈ 11.5 to 115 µM) in test [2], 0.5 to 1 µg/mL (≈ 1.15 to 2.3 µM) in test [3] and 0.5 to 1 µg/mL (≈ 1.15 to 2.3 µM) in test [4]. This molecule also came in with a minimal effective concentration in test [5] of 5 to 50 µg/mL.
Take `O=c1c(OC2Cc3ccccc3C2)c(N2CCN(Cc3cccs3)CC2)cnn1-c1ccccc1` [compound 428]: the MIC in test [1] lay in the range of 5 to 50 µg/mL (≈ 10.3 to 103 µM); in test [2], 1 to 5 µg/mL (≈ 2.06 to 10.3 µM); in test [3], 5 to 50 µg/mL (≈ 10.3 to 103 µM); in test [4], 0.5 to 1 µg/mL (≈ 1.03 to 2.06 µM). Also, the minimal effective concentration in test [5] lay in the range of 1 to 5 µg/mL.
In the case of `O=c1c(OCCC2CCCCC2)c(N2CCN(Cc3cccc(O)c3)CC2)cnn1-c1ccccc1` [compound 373], the MIC in test [1] lay within 5 to 50 µg/mL (≈ 10.2 to 102 µM); in test [2] it was 1 to 5 µg/mL (≈ 2.05 to 10.2 µM); in test [3] it was 1 to 5 µg/mL (≈ 2.05 to 10.2 µM); in test [4] it was 0.5 to 1 µg/mL (≈ 1.02 to 2.05 µM). For the same molecule, in test [5], the minimal effective concentration is 5 to 50 µg/mL.
Consider `CCOC(=O)C1CCCN(c2c(N3CCN(C(=O)CSc4nccc(C)n4)CC3)cnn(-c3ccccc3)c2=O)C1` (stereo not shown) [compound 130], for which the MIC is 5 to 50 µg/mL (≈ 8.65 to 86.5 µM) in test [1], 5 to 50 µg/mL (≈ 8.65 to 86.5 µM) in test [2], 1 to 5 µg/mL (≈ 1.73 to 8.65 µM) in test [3] and 5 to 50 µg/mL (≈ 8.65 to 86.5 µM) in test [4]. The minimal effective concentration in test [5] is 5 to 50 µg/mL.
Regarding `O=c1c(OCc2ccccc2)c(N2CCN(Cc3c(Cl)cccc3Cl)CC2)cnn1-c1ccccc1` [compound 339], the MIC in test [1] is 5 to 50 µg/mL (≈ 9.59 to 95.9 µM); in test [2], 1 to 5 µg/mL (≈ 1.92 to 9.59 µM); in test [3] it was 1 to 5 µg/mL (≈ 1.92 to 9.59 µM); in test [4] it was 1 to 5 µg/mL (≈ 1.92 to 9.59 µM). This molecule had a minimal effective concentration in test [5] of 1 to 5 µg/mL.
Consider `O=c1c(OC2Cc3ccccc3C2)c(N2CCN(Cc3ccoc3)CC2)cnn1-c1ccccc1` [compound 343], for which the MIC in test [1] was 5 to 50 µg/mL (≈ 10.7 to 107 µM); in test [2], 1 to 5 µg/mL (≈ 2.13 to 10.7 µM); in test [3], 1 to 5 µg/mL (≈ 2.13 to 10.7 µM); in test [4], less than 0.5 µg/mL. The minimal effective concentration in test [5] was 0.5 to 1 µg/mL.
In the case of `O=c1c(SCc2ccccc2)c(N2CCN(Cc3cc(O)cc(O)c3)CC2)cnn1-c1ccccc1` [compound 1], the minimal inhibitory concentration (MIC) was in the range of 5 to 50 µg/mL (≈ 9.99 to 99.9 µM) in test [1], 5 to 50 µg/mL (≈ 9.99 to 99.9 µM) in test [2], 1 to 5 µg/mL (≈ 2 to 9.99 µM) in test [3] and 5 to 50 µg/mL (≈ 9.99 to 99.9 µM) in test [4]. The same molecule had a minimal effective concentration in test [5] of 5 to 50 µg/mL.
Take `COc1ccc(Sc2c(N3CCN(S(=O)(=O)c4ccccc4)CC3)cnn(-c3ccccc3)c2=O)cc1` [compound 74]: the MIC in test [1] lay in the range of 5 to 50 µg/mL (≈ 9.35 to 93.5 µM); in test [2], 1 to 5 µg/mL (≈ 1.87 to 9.35 µM); in test [3], 0.5 to 1 µg/mL (≈ 0.935 to 1.87 µM); in test [4] it was 1 to 5 µg/mL (≈ 1.87 to 9.35 µM). This molecule returned a minimal effective concentration in test [5] of 1 to 5 µg/mL.

Source of the values: patent US20100158992A1, “PIPERAZINE-SUBSTITUTED PYRIDAZINONE DERIVATIVES USEFUL AS GLUCAN SYNTHASE INHIBITORS” (Schering Corporation, priority 2007, published 2010).
